The values below come from patent US20250041235A1, “FUNCTIONALIZED BIOLOGICAL MEMBRANES WITH MODIFYING PROTEIN MOLECULES, AND METHODS OF MAKING AND USES THEREOF” (McMaster University, priority 2021, published 2025).

Series [1] relates to E. coli. Kind of series: Bacterial growth curves (OD600, 24 h) for E. coli. It is filed as cell-based. Here is the method:
Bacterial growth curves for E. coli for different concentrations of (free) PmB (MIC, 0.5 MIC, 0.25 MIC, and 0 MIC) are shown in FIG. 12 a). […] Absorbance at 600 nm (OD 600) was measured during a period of 24 h. […] Bacteria treated with 0.25 MIC behaved similarly. A lag phase was observed before the first exponential cycle after the addition of an intermediate concentration of 0.5 MIC, where exponential growth was delayed by ˜9 h. […] Growth curves for E. coli treated with varying concentrations of Erythro-PmBs containing MIC, 0.5 MIC, 0.25 MIC, and 0 MIC of PmB are shown in FIG. 12 b).

Series [2] deals with red blood cells. Nature of the series: Hemolytic assay (hemoglobin release by UV absorption). It is filed as cell-based. Conditions: PmB concentrations from 0 MIC to MIC. Here is the method: 12% Triton X-100 was used as a total lysis control, and PBS was used as a negative control.
Hemolysis was determined from hemoglobin release measured by UV absorption. Data are shown for free PmB and Erythro-PmBs at different PmB concentrations from 0 MIC to MIC. Values in the order of 0.03% were determined to be well below the benchmark hemolysis rate of 2% identified by the American Society of Clinical Pathology and were considered to be non-hemolytic. […] Hemolytic activity of the Erythro-PmBs was less than that of free PmB, less than 0.01%, and independent of PmB concentration (within experimental error).

Series [3] relates to K. aerogenes. Kind of series: Bacterial growth curves (OD600, 24 h) for K. aerogenes. It counts as cell-based, Klebsiella aerogenes. An excerpt:
The lengths of the lag phase decreased monotonously with decreasing PmB concentration, similar to E. coli.
Bacterial growth curves for K. aerogenes for different concentrations of (free) PmB (MIC, 0.5 MIC, 0.25 MIC, and 0 MIC) are shown in FIG. 13 a). […] Diauxic growth was less evident in the presence of free PmB: 0.25 MIC to MIC.

polymyxin B [free PmB]: in series [1] (0.5 MIC), the “delay of exponential growth (lag phase)” value is listed as roughly 9 h. The “minimum inhibitory concentration (MIC)” value is 0.63 µg/mL in series [1] (OD600 over 24 h) and 1.5 µg/mL in series [3] (OD600 over 24 h). Also, the “growth at MIC” value in series [1] (PmB content at MIC (0.63 μg/mL)) is recorded as “No growth”. In addition, the hemolysis in series [2] is on record as roughly 0.03%. The lag phase in series [3] (0.25 MIC) is 6 h; in series [3] (0.5 MIC) it was 9 h.
